# Test results from ChEMBL document CHEMBL1124218, “Inhibition of murine thymidylate synthase and human dihydrofolate reductase by 5,8-dideaza analogues of folic acid and aminopterin” (J Med Chem, 1988).
# Molecular target: Thymidylate synthase (Mus musculus, UniProt P07607)
# Assay: Inhibitory activity against thymidylate synthase isolated from L1210 leukemia cells
# Assay type: cell-free
# Details: read-out: I50
# Thymidylate synthase, sequence (P07607 whole entry): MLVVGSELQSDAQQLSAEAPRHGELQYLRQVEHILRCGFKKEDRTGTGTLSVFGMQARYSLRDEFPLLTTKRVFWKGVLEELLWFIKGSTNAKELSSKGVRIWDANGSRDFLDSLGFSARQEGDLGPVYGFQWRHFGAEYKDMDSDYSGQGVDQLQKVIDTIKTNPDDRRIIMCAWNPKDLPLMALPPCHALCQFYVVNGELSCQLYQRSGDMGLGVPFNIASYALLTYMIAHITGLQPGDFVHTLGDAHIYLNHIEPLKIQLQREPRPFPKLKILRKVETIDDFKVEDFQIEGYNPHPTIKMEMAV
row,Structure (SMILES),IC50
1,Nc1nc(O)c2cc(CSc3ccc(C(=O)NC(CCC(=O)O)C(=O)O)cc3)ccc2n1 (stereo not drawn),220 nM
2,Nc1nc(O)c2cc(COc3ccc(C(=O)NC(CCC(=O)O)C(=O)O)cc3)ccc2n1 (stereo not drawn),12000 nM
3,Nc1nc(O)c2cc(CN(C=O)c3ccc(C(=O)NC(CCC(=O)O)C(=O)O)cc3)ccc2n1 (stereo not drawn),9800 nM
4,C=CCN(Cc1ccc(C(=O)NC(CCC(=O)O)C(=O)O)cc1)c1ccc2nc(N)nc(N)c2c1 (stereo not drawn),3200 nM
5,C#CCN(Cc1ccc(C(=O)NC(CCC(=O)O)C(=O)O)cc1)c1ccc2nc(N)nc(N)c2c1 (stereo not drawn),4400 nM
6,C#CCN(Cc1ccc(C(=O)NC(CCC(=O)O)C(=O)O)cc1)c1ccc2nc(N)nc(O)c2c1 (stereo not drawn),8600 nM
7,Nc1nc(N)c2cc(CN(C=O)c3ccc(C(=O)NC(CCC(=O)O)C(=O)O)cc3)ccc2n1 (stereo not drawn),> 10000 nM
8,CN(Cc1ccc2nc(N)nc(N)c2c1)c1ccc(C(=O)NC(CCC(=O)O)C(=O)O)cc1 (stereo not drawn),600 nM
9,Nc1nc(N)c2cc(CNc3ccc(C(=O)NC(CCC(=O)O)C(=O)O)cc3)ccc2n1 (stereo not drawn),5000 nM
10,CN(Cc1ccc(C(=O)NC(CCC(=O)O)C(=O)O)cc1)c1ccc2nc(N)nc(N)c2c1 (stereo not drawn),33 nM
11,CN(Cc1ccc2nc(N)nc(O)c2c1)c1ccc(C(=O)NC(CCC(=O)O)C(=O)O)cc1 (stereo not drawn),130 nM
12,Cc1c(NCc2ccc(C(=O)NC(CCC(=O)O)C(=O)O)cc2)ccc2nc(N)nc(O)c12 (stereo not drawn),2200 nM
13,Nc1nc(=O)c2cc(NCc3ccc(C(=O)NC(CCC(=O)O)C(=O)O)cc3)ccc2[nH]1 (stereo not drawn),1300 nM
14,Cc1c(NCc2ccc(C(=O)NC(CCC(=O)O)C(=O)O)cc2)ccc2nc(N)nc(N)c12 (stereo not drawn),150 nM
15,Nc1nc(N)c2c(Cl)c(CNc3ccc(C(=O)NC(CCC(=O)O)C(=O)O)cc3)ccc2n1 (stereo not drawn),190 nM
16,Nc1nc(N)c2c(Cl)c(NCc3ccc(C(=O)NC(CCC(=O)O)C(=O)O)cc3)ccc2n1 (stereo not drawn),98 nM
17,Nc1nc(O)c2c(Cl)c(NCc3ccc(C(=O)NC(CCC(=O)O)C(=O)O)cc3)ccc2n1 (stereo not drawn),4000 nM
18,Nc1nc(N)c2cc(NCc3ccc(C(=O)NC(CCC(=O)O)C(=O)O)cc3)ccc2n1 (stereo not drawn),550 nM
19,C=CCN(Cc1ccc(C(=O)NC(CCC(=O)O)C(=O)O)cc1)c1ccc2nc(N)nc(O)c2c1 (stereo not drawn),6100 nM
20,Nc1nc(N)c2cc(N(C=O)Cc3ccc(C(=O)NC(CCC(=O)O)C(=O)O)cc3)ccc2n1 (stereo not drawn),> 10000 nM
21,CN(Cc1ccc(C(=O)NC(CCC(=O)O)C(=O)O)cc1)c1ccc2nc(N)nc(O)c2c1 (stereo not drawn),200 nM
22,Nc1nc(O)c2cc(N(C=O)Cc3ccc(C(=O)NC(CCC(=O)O)C(=O)O)cc3)ccc2n1 (stereo not drawn),11000 nM
23,Cc1c(N(C)Cc2ccc(C(=O)NC(CCC(=O)O)C(=O)O)cc2)ccc2nc(N)nc(O)c12 (stereo not drawn),700 nM
